Laboratory results as given in US6888015B2, “Sphingolipid synthesis inhibitor” (Japan Science and Technology Agency, priority 2001, dated 2005).

What was measured:
[1] = system: protein trafficking from the ER to the Golgi apparatus; test: Glycoprotein (PLAP-HA) transport from the ER to the Golgi apparatus; type: cell-based, Chinese hamster; conditions: 2.5 μM; CHO-K1 transformant expressing PLAP-HA (FIG. 7)
[2] = system: synthesis of SM in HeLa cells; test: De novo synthesis of SM in HeLa cells; type: cell-based; conditions: FIG. 6D
Experimental: (§1) CHO cells are cultured in Ham's F12 medium supplemented with 10% newborn bovine serum (NBS), penicillin G (100 unit/mL) and streptomycin sulfate (100 μg/mL) at the temperature of 33° C. and 5% CO2 atmosphere. In the case of HeLa cells, Dulbecco's minimum essential medium is used as a base medium instead of Ham's F12 medium.

[3] = system: de novo synthesis of SM in CHO cells; test: Metabolic labeling of lipids with [14C]serine in CHO cells; type: cell-based, Chinese hamster; conditions: for inhibition of de novo SM synthesis (stereoisomers): [14C]serine labeling (FIG. 6B)
Experimental: as §1
Further, Nutridoma medium (Ham's F12 medium containing 1% Nutridoma-SP, product of Roche Molecular Biochemicals, and 25 μg/mL of gentamicin) is used as a serum-free medium. In the case when the medium is supplemented by DMSO or drugs dissolved in DMSO, the concentration of DMSO in culture medium is adjusted to be 0.01%.
CHO cells are seeded at the density of 1.0×10^6 cell in 5 mL of F12 medium containing 10% NBS, by per 60-mm dish, and cultured at 33° C. overnight. Then, the medium is changed to 1.5 mL of Nutridoma medium if necessary, various drugs are added and incubated at 4° C. for 15 minutes. Then, after addition of [^14C] serine (0.75 μCi) or [^14 C] choline (1.0 μCi) to the medium, cells were incubated at 33° C. for various periods of time.
Cells are washed twice with 2 mL of cold phosphate-buffered saline (PBS), and lysed with 900 μL of 0.1% sodium dodecyl sulfate (SDS). Then, 800 μL and 20 μL of lysate are used for lipid extraction and determination of protein concentration, respectively.
For the analysis of lipids labeled with [C^14C] serine, lipids were separated by TLC with a solvent consisting of methylacetate/n-propanol/chloroform/methanol/0.25%KCl (25:25:25:10:9, volume ratio) as a developing solvent.
Radioactive lipid separated on the TLC plates are detected with image analyzer depicted above. After the collection of gels from TLC plates by scraping, the radioactivity of each lipid is determined by liquid scintillation counting and normalized to the protein concentration of cells.

SMILES	maturation rate of newly synthesized PLAP-HA to an EndoH-resistant form [1]	synthesis of SM in HeLa cells [2]	inhibitory activity on the Cer-to-SM conversion among four stereoisomers ([3]; FIG. 6B, 6C)	inhibition of de novo SM synthesis (stereoisomers) [3]	formation of [14C]SM ([3]; 2.5 μM drug, [14C]serine labeling, CHO cells (FIG. 1B))
CCCCCCCCCCCC(=O)N[C@@H](CO)C[C@@H](O)c1ccccc1 [(1R, 3R)-HPA-12]	not affected	inhibits	strongest inhibitory activity	strongly	
CCCCCCCCCCCC(=O)N[C@H](CO)C[C@H](O)c1ccccc1 [(1S, 3S)-HPA-12]				moderately	
CCCCCCCCCCCCCCCC(=O)NC(CO)CC(O)c1ccccc1 (stereo not drawn) [HPA-16]					less than that of HPA-12
